pIC50: −log10 of the molar value.
Molecular target: T1, human SCD1 (hSCD-1) (Homo sapiens, UniProt O00767)
T1 construct: made in house; host or cells: baculovirus/Sf9
T1 sequence (O00767 1-359): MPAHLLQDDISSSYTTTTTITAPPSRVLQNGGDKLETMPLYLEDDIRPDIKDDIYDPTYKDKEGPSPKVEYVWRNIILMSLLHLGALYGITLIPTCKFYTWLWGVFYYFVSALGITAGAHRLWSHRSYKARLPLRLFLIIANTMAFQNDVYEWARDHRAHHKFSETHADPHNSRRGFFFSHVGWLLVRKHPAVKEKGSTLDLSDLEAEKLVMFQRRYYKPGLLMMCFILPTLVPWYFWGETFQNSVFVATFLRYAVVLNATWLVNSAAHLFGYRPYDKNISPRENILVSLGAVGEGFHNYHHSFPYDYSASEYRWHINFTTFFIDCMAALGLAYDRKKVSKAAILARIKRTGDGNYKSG
Test: SCD enzyme activity assay, reconstituted human SCD1 (hSCD-1)
Assay type: biochemical
Method: The potency of compounds of formula I against the stearoyl-CoA desaturase was determined by measuring the conversion of radiolabeled stearoyl-CoA to oleoyl-CoA using rat liver microsome or human SCD1 (hSCD-1) following previously published procedures with some modifications (Joshi, et al., J. Lipid Res., 18: 32-36 (1977); Talamo, et al., Anal. Biochem, 29: 300-304 (1969)). Liver microsome was prepared from male Wistar or Sprague Dawley rats on a high carbohydrate diet for 3 days (LabDiet #5803, Purina). The livers were homogenized (1:10 w/v) in a buffer containing 250 mM sucrose, 1 mM EDTA, 5 mM DTT and 50 mM Tris-HCl (pH 7.5). After a 100,000×g centrifugation for 60 min, the liver microsome pellet was suspended in a buffer containing 100 mM sodium phosphate, 20% glycerol, 2 mM DTT, and stored at −78° C. Human SCD1 desaturase system was reconstituted using human SCD1 from a baculovirus/Sf9 expression system, cytochrome B5 and cytochrome B5 reductase. Typically, test compound in 2 μL DMSO was incubated for 15 min at room temperature with 180 μL of the SCD enzyme in a buffer containing 100 mM Tris-HCl (pH 7.5), ATP (5 mM), Coenzyme-A (0.1 mM), Triton X-100 (0.5 mM) and NADH (2 mM). The reaction was initiated by the addition of 20 μL of [^3H]-stearoyl-CoA (final concentration=2 μM, radioactivity concentration=1 μCi/mL). After 10 min, the reaction mixture (80 μL) was mixed with a calcium chloride/charcoal aqueous suspension (100 μL charcoal (10% w/v) plus 25 μL CaCl2 (2N). After centrifugation to precipitate the radioactive fatty acid species, tritiated water released from 9,10-[^3H]-stearoyl-CoA by the SCD enzyme was quantified on a scintillation counter.

## O=C(O)Cn1nnc(-c2cnc(N3CC4CN(c5cc(C(F)(F)F)ccc5Br)CC4C3)s2)n1 (centres unmarked)
  pIC50: 7.85

## O=C(O)Cn1nnc(-c2cnc(N3CC4CN(c5cc(Cl)cc(F)c5Cl)CC4C3)s2)n1 (centres unmarked)
  pIC50: 7.89

## O=C(O)Cn1nnc(-c2cnc(N3CC4CN(c5cc(OC(F)(F)F)ccc5Cl)CC4C3)s2)n1 (centres unmarked)
  pIC50: 8.00

## O=C(O)Cn1nnc(-c2cnc(N3CC4CN(c5cc(Cl)ccc5Cl)CC4C3)s2)n1 (centres unmarked)
  pIC50: 7.89

## O=C(O)Cn1nnc(-c2cc(N3CC4CN(c5cc(F)ccc5Cl)CC4C3)no2)n1 (centres unmarked)
  pIC50: 7.57

## O=C(O)Cn1nnc(-c2cnc(N3CC4CN(c5cc(F)ccc5Cl)CC4C3)s2)n1 (centres unmarked)
  pIC50: 7.92

## O=C(O)Cn1nnc(-c2cnc(N3CC4CN(c5cc(F)ccc5Br)CC4C3)nc2)n1 (centres unmarked)
  pIC50: 7.11

## O=C(O)Cn1nnc(-c2cnc(N3CCC4(CC3)CN(c3cc(F)ccc3Cl)C4)s2)n1
  pIC50: 7.41

## O=C(O)Cn1nnc(-c2cnc(N3CCC4(CCN(c5ccccc5Cl)C4)C3)s2)n1 (centres unmarked)
  pIC50: 6.79

## O=C(O)Cn1nnc(-c2cnc(N3CC4(C3)CN(c3cc(F)ccc3Cl)C4)s2)n1
  pIC50: 7.96

## O=C(O)Cn1nnc(-c2cnc(N3CC4(CCN(c5cc(F)ccc5Cl)CC4)C3)s2)n1
  pIC50: 7.35

— US20120010186A1, “HETEROCYCLIC COMPOUNDS AS INHIBITORS OF STEAROYL-COENZYME A DELTA-9 DESATURASE” (MERCK FROSST CANADA LTD., priority 2009, published 2012)
